Holding throughout (type): functional
Test [1] relates to Mus musculus. Nature of the test: CNS activity in po dosed mouse assessed as reduction in muscle relaxant activity by inclined screening method.
In test [2] the test system is Mus musculus. In words: CNS activity in po dosed mouse assessed as reduction in fighting behaviour.
Test [3] has as its system Mus musculus. Nature of the test: Anticonvulsant activity in po dosed mouse assessed as protection against pentylenetetrazole-induced seizures.
In test [4] the test system is Mus musculus. Nature of the test: Anticonvulsant activity in po dosed mouse assessed as protection against maximal electroshock-induced seizures. In general terms: Protection in the maximal electroshock model is a classic sign of anticonvulsant action.
A further test concerns Felis catus. Nature of the test: CNS activity in po dosed unanesthesized cat assessed as muscle relaxant activity. The following applies: read-out: MED.

Where only a bound is given, the exact number is not on record here.

Turning to `O=C1CN=C(c2ccccn2)c2cc(Br)ccc2N1` [BROMAZEPAM], the 50% effective dose (ED50) (commonly the midpoint of the dose-response relation) is 30 mg/kg with Mus musculus [1], 10 mg/kg in the test on Mus musculus [2], 0.8 mg/kg with Mus musculus [3] and 34 mg/kg in the test with Mus musculus [4]. In addition, the minimal effective dose in the test with Felis catus is 0.2 mg/kg.
Turning to `O=C1CN=C(c2ncccn2)c2cc(Cl)ccc2N1`, the ED50 was found to be 500 mg/kg in the test on Mus musculus [1], 100 mg/kg with Mus musculus [2], 1.75 mg/kg in the test with Mus musculus [3] and 520 mg/kg with Mus musculus [4]. Moreover, the minimal effective dose in the test with Felis catus turned out to be 2 mg/kg.
As to `O=C1CN=C(c2cnccn2)c2cc(Cl)ccc2N1`, the ED50 was 300 mg/kg with Mus musculus [1], 50 mg/kg with Mus musculus [2], 7.4 mg/kg with Mus musculus [3] and above 800 mg/kg in the test with Mus musculus [4]. Further, in the test on Felis catus, the minimal effective dose was found to be 10 mg/kg.
With `O=[N+]([O-])c1ccc2c(c1)C(c1ncccn1)=NCCN2`, the ED50 in the test on Mus musculus [1] was above 400 mg/kg; in the test on Mus musculus [3] it was 68 mg/kg; with Mus musculus [4], above 800 mg/kg.
As for `CN1CCN=C(c2ncccn2)c2cc(Cl)ccc21`, the 50% effective dose (ED50) in the test with Mus musculus [1] is 200 mg/kg; in the test on Mus musculus [2], 100 mg/kg; in the test on Mus musculus [3], above 800 mg/kg; with Mus musculus [4] it was 360 mg/kg. Besides, the minimal effective dose with Felis catus was 10 mg/kg.
Take `O=C1CN=C(c2ccncn2)c2cc(Cl)ccc2N1`: the ED50 in the test on Mus musculus [1] was above 400 mg/kg; with Mus musculus [2] it was above 100 mg/kg; in the test on Mus musculus [3], 340 mg/kg; with Mus musculus [4], above 800 mg/kg.
`Cc1cnc(C)c(C2=NCC(=O)Nc3ccc(Br)cc32)n1`: the ED50 in the test with Mus musculus [1] was above 400 mg/kg; in the test with Mus musculus [2] it was 50 mg/kg; in the test on Mus musculus [3], 37 mg/kg; in the test with Mus musculus [4], above 800 mg/kg. Further, the minimal effective dose in the test with Felis catus is 10 mg/kg.
Regarding `CN1CCN=C(c2ncccn2)c2cc([N+](=O)[O-])ccc21`, the ED50 with Mus musculus [1] was 250 mg/kg; in the test on Mus musculus [2] it was above 100 mg/kg; with Mus musculus [3] it was 93 mg/kg; in the test with Mus musculus [4] it was above 800 mg/kg. For the same compound, the minimal effective dose in the test on Felis catus was found to be 20 mg/kg.
Consider `CN1C(=O)CN=C(c2ncccn2)c2cc(Cl)ccc21`, for which the 50% effective dose (ED50) was above 200 mg/kg in the test with Mus musculus [1], 0.75 mg/kg in the test on Mus musculus [3] and 315 mg/kg with Mus musculus [4]. In addition, the minimal effective dose in the test on Felis catus came out at 0.1 mg/kg.
On to `CN1C(=O)CN=C(c2ccccc2)c2cc(Cl)ccc21` [DIAZEPAM], for which the ED50 with Mus musculus [1] was 30 mg/kg; with Mus musculus [2], 10 mg/kg; with Mus musculus [3], 1.4 mg/kg; in the test with Mus musculus [4], 22 mg/kg. Further, in the test with Felis catus, the minimal effective dose amounted to 0.2 mg/kg.
